The values that follow come from patent US6667313B1, “8-substituted-6-triflouromethyl-9-pyrido [3,2-G] quinoline compounds as androgen receptor modulators” (Ligand Pharmaceuticals Inc., priority 1999, dated 2003).

Test [1] concerns the target T1, human AR (Homo sapiens, UniProt P10275).
T1 sequence (P10275 1-920): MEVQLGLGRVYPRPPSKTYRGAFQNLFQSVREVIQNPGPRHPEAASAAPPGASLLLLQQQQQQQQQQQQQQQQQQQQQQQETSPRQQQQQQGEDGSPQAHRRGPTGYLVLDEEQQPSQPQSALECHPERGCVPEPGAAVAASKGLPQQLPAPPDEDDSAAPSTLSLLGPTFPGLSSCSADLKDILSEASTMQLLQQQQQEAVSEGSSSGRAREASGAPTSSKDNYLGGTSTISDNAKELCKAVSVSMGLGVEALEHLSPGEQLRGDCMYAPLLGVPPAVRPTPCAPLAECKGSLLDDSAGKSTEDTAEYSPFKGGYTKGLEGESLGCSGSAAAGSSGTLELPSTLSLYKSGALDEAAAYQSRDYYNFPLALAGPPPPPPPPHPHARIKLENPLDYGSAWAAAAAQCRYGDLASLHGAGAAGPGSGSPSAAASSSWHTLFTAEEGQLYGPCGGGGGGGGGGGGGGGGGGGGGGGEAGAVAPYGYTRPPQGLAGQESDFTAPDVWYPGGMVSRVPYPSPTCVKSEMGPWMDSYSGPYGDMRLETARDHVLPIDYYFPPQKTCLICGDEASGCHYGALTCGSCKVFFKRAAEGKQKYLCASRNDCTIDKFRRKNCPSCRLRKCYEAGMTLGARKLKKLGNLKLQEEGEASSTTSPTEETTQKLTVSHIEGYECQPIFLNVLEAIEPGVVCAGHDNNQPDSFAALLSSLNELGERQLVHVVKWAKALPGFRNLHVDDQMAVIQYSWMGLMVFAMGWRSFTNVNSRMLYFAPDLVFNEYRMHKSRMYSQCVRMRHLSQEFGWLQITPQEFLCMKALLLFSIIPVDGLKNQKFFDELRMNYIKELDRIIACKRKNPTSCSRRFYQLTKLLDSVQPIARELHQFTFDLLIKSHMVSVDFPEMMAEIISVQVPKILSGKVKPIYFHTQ
The test can be described thus: Co-transfection assay, AR agonist, CV-1 cells. The conditions noted are these: CV-1 cells; percent maximal response relative to reference agonist DHT. Type of test: cell-based. An excerpt:
(§1) The reporter plasmid, MTV-LUC, contains the cDNA for firefly luciferase (LUC) under control of themouse mammary tumor virus (MTV) long terminal repeat, a conditional promoter containing an androgen response element. See e.g., Berger et al. supra. In addition, pRS-β-Gal, coding for constitutive expression of E. coli β-galactosidase (β-Gal), was included as an internal control for evaluation of transfection efficiency and compound toxicity.
(§2) Three to four replicates were used for each sample.
(§3) After 40 hours, the cells were washed with PBS, lysed with a Triton X-100-based buffer and assayed for LUC and β-Gal activities using a luminometer or spectrophotometer, respectively. For each replicate, the normalized response (NR) was calculated as:
(§4) where β-Gal rate=β-Ga·1×10^−5/β-Gal incubation time.

The target in test [2] is T1, human AR. The test can be described thus: AR whole cell competitive binding assay (3H-DHT), COS-1 cells. The protocol: AR Binding: For the whole cell binding assay, COS-1 cells in 96-well microtiter plates containing DMEM-10% FBS were transfected as described above with the following plasmid DNA: pRShAR (2 ng/well), pRS-β-Gal (50 ng/well) and pGEM (48 ng/well). Six hours after transfection, media was removed, the cells were washed with PBS and fresh media was added. The next day, the media was changed to DMEM-serum free to remove any endogenous ligand that might be complexed with the receptor in the cells.
Three replicates were used for each sample. […] The remaining media was removed, the cells were washed three times with PBS to remove unbound ligand, and cells were lysed with a Triton X-100-based buffer.
For the saturation analyses, the difference between the total binding and the nonspecific binding, normalized by the β-Gal rate, was defined as specific binding.
After correcting for non-specific binding, IC50 values were determined. […] The IC50 value was determined graphically from a log-logit plot of the data. The Ki values were determined by application of the Cheng-Prusoff equivuation to the IC50 values, the labeled ligand concentration and the Kd of the labeled ligand.

Test [3] has as its target T1, human AR. The test can be described thus: Co-transfection assay, AR antagonist, CV-1 cells (in presence of DHT). Type of test: cell-based. The conditions noted are these: for AR Antagonist CV-1 Cells Efficacy (%): percent maximal inhibition, DHT at EC50.
From the text: as §1, §2, §3, §4

In test [4] the target is T2, ER (Homo sapiens, UniProt P03372).
T2 construct: expressed in transfected cells; host or cells: CV-1 cells (inferred: the only cells described for the co-transfection assay)
T2 sequence (P03372 1-595): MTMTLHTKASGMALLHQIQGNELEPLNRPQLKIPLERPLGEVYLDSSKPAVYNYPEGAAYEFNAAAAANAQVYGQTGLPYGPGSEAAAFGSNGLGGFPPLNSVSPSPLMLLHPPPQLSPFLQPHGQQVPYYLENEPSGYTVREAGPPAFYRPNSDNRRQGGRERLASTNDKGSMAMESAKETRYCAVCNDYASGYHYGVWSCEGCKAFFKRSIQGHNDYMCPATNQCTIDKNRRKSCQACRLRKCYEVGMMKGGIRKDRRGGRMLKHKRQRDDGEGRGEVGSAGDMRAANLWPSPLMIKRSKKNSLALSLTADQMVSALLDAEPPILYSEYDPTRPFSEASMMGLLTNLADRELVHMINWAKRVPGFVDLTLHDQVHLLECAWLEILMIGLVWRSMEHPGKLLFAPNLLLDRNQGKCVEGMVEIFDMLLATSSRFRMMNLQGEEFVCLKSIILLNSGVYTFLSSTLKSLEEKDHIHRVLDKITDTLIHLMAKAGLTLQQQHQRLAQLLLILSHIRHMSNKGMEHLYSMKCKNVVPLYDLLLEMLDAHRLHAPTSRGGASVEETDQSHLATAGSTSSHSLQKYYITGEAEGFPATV
Put plainly: Co-transfection assay, ER antagonist. Type of test: cell-based. The conditions noted are these: Table 2; read-out: ER Potency Antag.

In test [5] the target is T2, ER. The test can be described thus: Co-transfection assay, ER agonist. Type of test: cell-based. The note with it: Table 2; read-out: ER Potency Agon.

For `CC1(C)CCc2cc3c(C(F)(F)F)c(F)c(Br)nc3cc2N1` [Compound 119, 8-Bromo-7-fluoro-1,2,3,4-tetrahydro-2,2-dimethyl-6-trifluoromethyl-9-pyrido[3,2-g]quinoline], the “AR Agonist CV-1 Cells Efficacy (%)” value in test [1] is recorded as 6%. Besides, the inhibition constant Ki in test [2] is 0.091 ± 0.068 µM. In addition, in test [3], the IC50 turned out to be 0.047 ± 0.027 µM and the “AR Antagonist CV-1 Cells Efficacy (%)” value amounted to 73 ± 7%.
Take `CC1(C)CCc2cc3c(C(F)(F)F)c(F)cnc3cc2N1` [Compound 126, 7-Fluoro-1,2,3,4-tetrahydro-2,2-dimethyl-6-trifluoromethyl-9-pyrido[3,2-g]quinoline]: in test [1], the “AR Agonist CV-1 Cells Efficacy (%)” value was found to be 3 ± 5%. In addition, the Ki in test [2] amounted to 0.058 µM. In test [3], the IC50 was 0.181 ± 0.073 µM and the “AR Antagonist CV-1 Cells Efficacy (%)” value is 93 ± 4%.
As for `CC(C)(O)C(=O)Nc1ccc([N+](=O)[O-])c(C(F)(F)F)c1` [Flut], the IC50 in test [4] was above 10 µM. In addition, in test [5], the EC50 is above 10 µM.
